Tests used:
Brown Norway rats = assay: Electroretinography (a-wave) after verteporfin PDT in rats treated i.p. with agent; format: in vivo, rat; conditions: for A Wave Amplitude PDT Eye: ERG 3-4 hours after PDT; for A Wave Amplitude PDT Eye / A Wave Amplitude Control Eye: N 4; for A Wave Amplitude % Control: PDT eye vs control eye, * p ≦ 0.05 vs vehicle; for A Wave Amplitude Control Eye: eye not treated with PDT; for loss in retinal function induced by PDT: rats, i.p. 1 hour before PDT, a-wave amplitudes
Method: Brown Norway rats weighing 200-400 grams were treated intraperitoneally (i.p.) with either brimonidine, AGN 199960, or the saline vehicle. One hour later, the rats were unilaterally treated with PDT and evaluated by electroretinography 3-4 hours later. There were 4 rats in each treatment group.
PDT was conducted as follows: Mydriasis was induced in one eye of each rat with a drop of 0.5% tropicamide. Rats were then anesthetized with isoflurane and placed on a platform in front of a slit lamp coupled to a Coherent diode laser for verteporfin PDT (689 nm). Verteporfin was injected intravenously at a dose of 6 mg/m^2. […] Three to four hours later, the treated animals were again dilated and anesthetized, then electroretinograms (ERGs) were evaluated in each eye.
ERGs are collected non-invasively by measuring mass-cell response arising due to retinal activity proceeding from a light stimulus. The first cells stimulated by a flash light stimulation are the photoreceptors at the outer retinal layer. This response is measured as an a-wave. As the signal is transduced to inner retinal neurons, a b-wave is produced. The a-wave reflects activity in the photoreceptors and the b-wave reflects activity in both photoreceptors and bipolar cells.
Before being subjected to the ERG test, the rats were placed in the dark (dark-adapted) for 15 minutes. Two types of ERG apparatus were used to generate the results below. In the initial brimonidine experiment, each eye was evaluated separately. A Grass photostimulator was placed 10 cm from the recording eye and flashed a single white flash lasting 10 microseconds. A gold corneal ring electrode with a reference electrode attached to the lower eyelid detected retinal responses. For the AGN 199960 experiments, a Ganzfeld dome was used to generate a single flash and sensitive bipolar corneal electrodes were placed on both eyes, thus allowing simultaneous ERGs to be done. A cushioning agent on the cornea (methylcellulose) was used in each case, and the responses were amplified and stored in a computer. The results reported are a-wave amplitudes, which appear to be the ERG parameter most affected in clinical PDT. […] has the following structure: [drawing 3]

[1] = tested on: wet age-related macular degeneration patient
Method: A patient presents with “wet” age-related macular degeneration (ARMD) in the foveal region of the right eye, and their condition is found to be suitable for photodynamic therapy (PDT). For one week prior to the date of scheduled treatment, the patient is given a topical dosage of brimonidine twice a day in a standard formulation.
The day of scheduled PDT treatment, the patient is administered 6 mg/M^2 of verteporfin. Fifteen minutes after the start of the infusion, the patient is administered Irradiance of 600 mW/cm^2 and total fluence of 50 Joules/cm^2 from an Argon light laser.
Brimonidine administration is continued every two days throughout the 12 week evaluation period.
Evaluation of neural health is assayed 1 week, 4 weeks, and 12 weeks following treatment by visual inspection of the retina and test of visual acuity.

CNV = conditions: FIG. 1B
retina = conditions: cited from earlier work

## O=C1c2ccccc2CCC1Cc1c[nH]c(=S)[nH]1 (centres unmarked) [AGN 960]
Brown Norway rats; 300 ug/kg i.p. 1 hour prior to PDT, Ganzfeld dome
  A Wave Amplitude PDT Eye: 212 ± 16 uV
Brown Norway rats; 300 ug/kg i.p. 1 hour prior to PDT
  A Wave Amplitude % Control: 101 ± 13* %
Brown Norway rats; 300 ug/kg i.p., Ganzfeld dome
  A Wave Amplitude Control Eye: 218 ± 29 uV
Brown Norway rats
  loss in retinal function induced by PDT: inhibited

## Brc1c(NC2=NCCN2)ccc2nccnc12 [Brimonidine]
Brown Norway rats; 1000 ug/kg i.p. 1 hour prior to PDT, Grass photostimulator
  A Wave Amplitude PDT Eye: 90 ± 15 uV
Brown Norway rats; 1000 ug/kg i.p. 1 hour prior to PDT
  A Wave Amplitude % Control: 103 ± 8* %
Brown Norway rats; 1000 ug/kg i.p., Grass photostimulator
  A Wave Amplitude Control Eye: 91 ± 21 uV
Brown Norway rats; FIG. 1A, compared to a saline control
  post PDT decrease in retinal functionality: inhibits
Brown Norway rats
  loss in retinal function induced by PDT: inhibited
[1]; 4 and 12 weeks following treatment
  visual acuity: no discernable loss of vision
[1]; 12 weeks following PDT treatment
  renewed neovascularization: No evidence
[1]; monitoring period up to 12 weeks
  optic nerve axon loss: no evidence
[1]; one week after PDT and throughout the monitoring period
  Fluorescein angiography leakage in the treated tissue: minimal leakage
[1]; topical twice a day one week before PDT, then every two days, 1 to 12 weeks after PDT
  visual inspection of the retina (whitening, edema): healthy with no whitening
CNV
  area of ablation of CNV following PDT: does not affect

## verteporfin [vertporfin]
retina; about 6 mg/m^2, treatment necessary every few months
  effect of PDT on vascular outgrowth and associated edema: effective to slow vascular outgrowth and associated edema somewhat
retina; high doses (12 and 18 mg/m^2)
  retinal and optic nerve damage from PDT: long term or permanent scarring of the retina, chronic absence of photoreceptor cells, and optic nerve atrophy
